From ChEMBL document CHEMBL1201862, “PubChem BioAssay data set” (2004)
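A five-concentration, 48-hour dose response in 96-well plates underlies each endpoint, interpolated linearly between surrounding concentrations. At the GI50, growth is halved.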 Activity calls are given as the source filed them. Rule as the data show it: active = GI50 up to about 1.1 µM and inactive = higher.

Experiments:
Test in all cases: growth of human tumour cells (NCI), 48 h
[1] = tested on: OVCAR-8
[2] = tested on: A498
[3] = tested on: K562
[4] = tested on: M14
[5] = tested on: CAKI-1
[6] = tested on: UO-31
[7] = tested on: SF-539
[8] = tested on: DU-145
[9] = tested on: HL-60
[10] = tested on: SW-620
[11] = tested on: SN12C
[12] = tested on: SR
[13] = tested on: CCRF-CEM
[14] = tested on: KM12
[15] = tested on: 786-0
[16] = tested on: RXF 393
[17] = tested on: HCT-116
[18] = tested on: NCI-H226
[19] = tested on: SF-268
[20] = tested on: HCC 2998

Compound	GI50 [1]	GI50 [2]	GI50 [3]	GI50 [4]	GI50 [5]	GI50 [6]	GI50 [7]	GI50 [8]	GI50 [9]	GI50 [10]	GI50 [11]	GI50 [12]	GI50 [13]	GI50 [14]	GI50 [15]	GI50 [16]	GI50 [17]	GI50 [18]	GI50 [19]	GI50 [20]
COc1cc2nc(-c3cccs3)oc(=O)c2cc1OC	53.1 µM (inactive)	> 100 µM (inactive)	> 100 µM (inactive)	> 100 µM (inactive)	> 100 µM (inactive)	> 100 µM (inactive)	57.3 µM (inactive)	> 100 µM (inactive)	> 100 µM (inactive)	> 100 µM (inactive)	> 100 µM (inactive)	> 100 µM (inactive)	> 100 µM (inactive)	> 100 µM (inactive)	94 µM (inactive)	> 100 µM (inactive)	86.5 µM (inactive)	50.7 µM (inactive)	61.7 µM (inactive)	
Oc1nc(-c2ccc3ccccc3c2)nc2ccccc12	12.7 µM (inactive)	32.9 µM (inactive)	> 100 µM (inactive)	33.5 µM (inactive)	75 µM (inactive)	23.4 µM (inactive)		> 100 µM (inactive)	> 100 µM (inactive)	> 100 µM (inactive)	54.1 µM (inactive)	20.4 µM (inactive)		> 100 µM (inactive)	6.89 µM (inactive)	25.4 µM (inactive)	18.7 µM (inactive)	12.6 µM (inactive)	26.3 µM (inactive)	62.5 µM (inactive)
N=C(N)N/N=C\c1c(-c2cccc([N+](=O)[O-])c2)nc2sc(Cl)cn12	2.75 µM (inactive)	27.4 µM (inactive)	0.575 µM (active)	3.49 µM (inactive)	2.33 µM (inactive)	1.71 µM (inactive)	2.6 µM (inactive)	2.48 µM (inactive)	2 µM (inactive)	3.18 µM (inactive)	2.6 µM (inactive)	0.61 µM (active)	1.26 µM (inactive)	2.32 µM (inactive)	3.27 µM (inactive)	2.19 µM (inactive)		53.2 µM (inactive)	3.06 µM (inactive)	2.31 µM (inactive)
O=C(/C=C/c1ccccc1)NNC(=O)c1c(Cl)c(Cl)c(Cl)c(Cl)c1-c1nc2ccccc2[nH]1	32 µM (inactive)	29.6 µM (inactive)	25.2 µM (inactive)	25.8 µM (inactive)	33.3 µM (inactive)	19.5 µM (inactive)	22.3 µM (inactive)	28.6 µM (inactive)	20.3 µM (inactive)	33.3 µM (inactive)	21.6 µM (inactive)	12.9 µM (inactive)	27 µM (inactive)		4.5 µM (inactive)	18.8 µM (inactive)	22.1 µM (inactive)	13.9 µM (inactive)	51.8 µM (inactive)	21.7 µM (inactive)
O=C(Nc1ccc(S(=O)(=O)Nc2ncccn2)cc1)c1c2ccccc2nc2ccccc12	> 100 µM (inactive)	> 100 µM (inactive)	> 100 µM (inactive)	> 100 µM (inactive)	> 100 µM (inactive)	> 100 µM (inactive)	> 100 µM (inactive)	> 100 µM (inactive)	< 0.01 µM (active)	> 100 µM (inactive)	> 100 µM (inactive)	55.7 µM (inactive)	> 10 µM (inactive)	> 100 µM (inactive)	> 100 µM (inactive)		> 100 µM (inactive)	< 0.01 µM (active)	> 100 µM (inactive)	> 100 µM (inactive)
CCOC(=O)C1=[N+]([O-])OC2=C(O)CCCC21 (stereo not given)	> 100 µM (inactive)	> 100 µM (inactive)	> 100 µM (inactive)	> 100 µM (inactive)	> 100 µM (inactive)	> 100 µM (inactive)		> 100 µM (inactive)		> 100 µM (inactive)	> 100 µM (inactive)	> 100 µM (inactive)	> 100 µM (inactive)	> 100 µM (inactive)	> 100 µM (inactive)	> 100 µM (inactive)	> 100 µM (inactive)	> 100 µM (inactive)	> 100 µM (inactive)	> 100 µM (inactive)
CCOC(=O)C(C/C=C/CO)N(C)C(=O)OC(C)(C)C (stereo not given)	> 100 µM (inactive)	> 100 µM (inactive)	83.9 µM (inactive)	> 100 µM (inactive)	> 100 µM (inactive)	> 100 µM (inactive)	> 100 µM (inactive)	> 100 µM (inactive)	> 100 µM (inactive)	> 100 µM (inactive)	> 100 µM (inactive)	94.8 µM (inactive)	28.1 µM (inactive)	> 100 µM (inactive)	> 100 µM (inactive)	> 100 µM (inactive)	> 100 µM (inactive)	> 100 µM (inactive)	92.9 µM (inactive)	
Cc1ccc(C(=O)C2C=C(c3ccc(C)cc3)SC3C=CCC32)cc1 (stereo not given)	17 µM (inactive)	24.7 µM (inactive)	27.7 µM (inactive)	19.6 µM (inactive)	18.9 µM (inactive)	16.1 µM (inactive)	17.9 µM (inactive)	32.3 µM (inactive)	8.95 µM (inactive)	15.8 µM (inactive)	17.2 µM (inactive)	12.6 µM (inactive)	13.6 µM (inactive)	15 µM (inactive)	19.5 µM (inactive)	21 µM (inactive)	13.5 µM (inactive)	27.2 µM (inactive)		
CC1OCC2OC(C)OC(C3C4=C(CC(C)(C)CC4=O)OC4=C3C(=O)CC(C)(C)C4)C2O1 (stereo not given)	> 100 µM (inactive)	> 100 µM (inactive)	> 100 µM (inactive)	> 100 µM (inactive)	> 100 µM (inactive)	> 100 µM (inactive)	> 100 µM (inactive)	> 100 µM (inactive)	> 100 µM (inactive)	> 100 µM (inactive)	> 100 µM (inactive)	> 100 µM (inactive)	> 100 µM (inactive)	> 100 µM (inactive)	> 100 µM (inactive)	> 100 µM (inactive)	> 100 µM (inactive)	> 100 µM (inactive)	> 100 µM (inactive)	> 100 µM (inactive)
O=C(O)Cc1ccc(Nc2nc3ccccc3nc2C(=O)O)cc1	> 100 µM (inactive)	> 100 µM (inactive)		> 100 µM (inactive)	> 100 µM (inactive)	> 100 µM (inactive)	> 100 µM (inactive)	> 100 µM (inactive)	> 100 µM (inactive)	> 100 µM (inactive)	> 100 µM (inactive)	> 100 µM (inactive)	> 100 µM (inactive)	> 100 µM (inactive)	> 100 µM (inactive)	> 100 µM (inactive)	> 100 µM (inactive)	> 100 µM (inactive)	> 100 µM (inactive)	
C=C(Cl)/C(=C\Br)CCC(Cl)C(C)C.C=C(Cl)/C(=C\Cl)CCC(Cl)C(C)C (stereo not given)		20.3 µM (inactive)	4.03 µM (inactive)	17.4 µM (inactive)	17.8 µM (inactive)	18.2 µM (inactive)	18.2 µM (inactive)	18 µM (inactive)	4.24 µM (inactive)	2.75 µM (inactive)	17.2 µM (inactive)	6.53 µM (inactive)	5.62 µM (inactive)	14.3 µM (inactive)	15.3 µM (inactive)	11.3 µM (inactive)	16.1 µM (inactive)	23.4 µM (inactive)	18.6 µM (inactive)	18.7 µM (inactive)
C/C(=C\[Si](C)(C)c1ccco1)C(C)(O)[C@H](C)O (stereo not given in full)	55.1 µM (inactive)	76 µM (inactive)	32.3 µM (inactive)	> 100 µM (inactive)	> 100 µM (inactive)		> 100 µM (inactive)	38.4 µM (inactive)	26.9 µM (inactive)	84.9 µM (inactive)	32.7 µM (inactive)	33.8 µM (inactive)	32.9 µM (inactive)	40.6 µM (inactive)	44.9 µM (inactive)		41.6 µM (inactive)	64.9 µM (inactive)	90.2 µM (inactive)	34.8 µM (inactive)
Nc1c2c(nc3cc(F)c(F)cc13)CCC2	44.5 µM (inactive)	24.7 µM (inactive)	35.3 µM (inactive)	61.5 µM (inactive)	47.5 µM (inactive)	4.05 µM (inactive)	46 µM (inactive)	52.6 µM (inactive)	2.82 µM (inactive)	29.2 µM (inactive)	43.2 µM (inactive)	24.2 µM (inactive)		50.2 µM (inactive)	45.6 µM (inactive)	33.5 µM (inactive)	38 µM (inactive)	33.3 µM (inactive)	58.5 µM (inactive)	14.5 µM (inactive)
Clc1ccc(/C=N/C23CC4CC(CC(C4)C2)C3)c(Cl)c1	> 10 µM (inactive)	> 10 µM (inactive)	> 10 µM (inactive)	> 10 µM (inactive)	> 10 µM (inactive)		> 10 µM (inactive)	> 10 µM (inactive)	> 10 µM (inactive)	> 10 µM (inactive)	> 10 µM (inactive)	3.5 µM (inactive)	> 10 µM (inactive)	> 10 µM (inactive)	> 10 µM (inactive)	> 10 µM (inactive)	> 10 µM (inactive)	> 10 µM (inactive)	> 10 µM (inactive)	> 10 µM (inactive)
O=c1cc(-c2ccccc2F)[nH]c2ccc(N3CCCC3)cc12	0.0624 µM (active)	0.0215 µM (active)	0.0257 µM (active)	0.0301 µM (active)	< 0.001 µM (active)	0.00274 µM (active)	< 0.001 µM (active)	0.0535 µM (active)	> 100 µM (inactive)	< 0.001 µM (active)	0.17 µM (active)	0.498 µM (active)	0.0461 µM (active)	0.0955 µM (active)	0.0442 µM (active)	13 µM (inactive)			0.0363 µM (active)	0.00179 µM (active)
